Type in all cases: biochemical
Assay [1] concerns the target T1, Human Fibroblast Collagenase (Homo sapiens, UniProt P03956).
T1 construct: All active MMPs are purified by gel filtration; made in house
T1 sequence (P03956 100-269 limits assumed): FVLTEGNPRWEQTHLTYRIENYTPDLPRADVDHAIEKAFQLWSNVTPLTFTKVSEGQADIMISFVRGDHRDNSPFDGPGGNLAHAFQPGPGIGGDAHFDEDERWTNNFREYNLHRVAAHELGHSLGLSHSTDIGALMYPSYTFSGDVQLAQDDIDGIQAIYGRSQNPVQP
The experiment in a line: inhibition of recombinant MMP, peptide substrate assay with fluorescamine detection (HFC). The conditions noted are these: calculated from measured percent inhibition using Km, assuming competitive inhibition; Met1-Pro250 proenzyme, activated with p-aminophenylmercury.

For assay [2], the target named is T2, Human Neutrophil Collagenase (Homo sapiens, UniProt P22894).
T2 construct: expressed as mature enzymes with C-terminal truncations, Phe83-Thr260 and Met100-Gly262, respectively; made in house
T2 sequence (P22894 100-262): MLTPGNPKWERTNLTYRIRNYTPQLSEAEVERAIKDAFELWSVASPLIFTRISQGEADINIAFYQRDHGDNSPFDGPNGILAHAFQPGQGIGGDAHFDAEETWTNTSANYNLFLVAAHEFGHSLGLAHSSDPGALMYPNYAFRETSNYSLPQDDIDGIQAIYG
The experiment in a line: inhibition of recombinant MMP, peptide substrate assay with fluorescamine detection (HNC). The conditions noted are these: calculated from measured percent inhibition using Km, assuming competitive inhibition; Met100-Gly262.

The target in assay [3] is T3, Human Fibroblast Stromelysin (Homo sapiens, UniProt P08254).
T3 construct: expressed as mature enzymes with C-terminal truncations, Phe83-Thr260 and Met100-Gly262, respectively; made in house
T3 sequence (P08254 100-277): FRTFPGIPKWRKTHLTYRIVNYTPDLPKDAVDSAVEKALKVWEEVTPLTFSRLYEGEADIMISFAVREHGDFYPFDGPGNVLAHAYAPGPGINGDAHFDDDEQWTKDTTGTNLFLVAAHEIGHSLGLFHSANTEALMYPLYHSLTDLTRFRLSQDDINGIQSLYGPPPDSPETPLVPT
Kind of assay: inhibition of recombinant MMP, peptide substrate assay with fluorescamine detection (HFS).

Consider `CNC(=O)[C@H](Cc1ccccc1)NC(=O)[C@H](CCCCOCc1ccccc1)CC(=O)NO` [Example 2, N-[(2R)-2-[2'-(Hydroxyamino)-2'(oxo)ethyl]-6-(phenylmethoxy)hexanoyl]-L-phenylalanine N-methylamide], for which the Ki – broadly, the dissociation constant of the complex between target and ligand, obtained from inhibition or displacement – in assay [1] was 1450 nM.
For the compound `CNC(=O)[C@H](Cc1ccccc1)NC(=O)[C@H](CCCCO)CC(=O)NO` [Example 3, N-[(2R)-2-[2'-(hydroxyamino)-2'-(oxo)ethyl]-6-(hydroxy)hexanoyl]-L-phenylalanine N-methylamide], the results for the Ki in assay [1] and in assay [2] were 30 nM and 7 nM, respectively.
Regarding `CNC(=O)[C@H](Cc1ccccc1)NC(=O)[C@H](CCCC(=O)O)CC(=O)NO` [Example 4, N-[(2R)-2-[2'-(Hydroxyamino)-2'-(oxo)ethyl]-5-(carboxy)pentanoyl]-L-phenylalanine N-methylamide], the Ki in assay [2] is 270 nM.
Take `CCCNC(=O)CCC[C@H](CC(=O)NO)C(=O)N[C@@H](Cc1ccccc1)C(=O)NC` [Example 5, N-[(2R)-2-[2'-(Hydroxyamino)-2'-(oxo)ethyl]-6-(propylamino)-6-(oxo)hexanoyl]-L-phenylalanine N-methylamide]: the Ki in assay [1] is 5100 nM; in assay [2] it was under 2 nM.
For the compound `CNC(=O)[C@H](Cc1ccccc1)NC(=O)[C@H](CCCC(C)O)CC(=O)NO` (stereo partly drawn) [Example 6, N-[(2R)-2-[2'-(Hydroxyamino)-2'-(oxo)ethyl]-(6RS)-6-(hydroxy)heptanoyl]-L-phenylalanine N-methylamide], the Ki in assay [1] is 150 nM; in assay [2], 20 nM; in assay [3], 1500 nM.
Regarding `CNC(=O)[C@@H](NC(=O)[C@H](CCCCOCc1ccccc1)CC(=O)NO)C(C)(C)C` [Example 8, (2S)-N-2-[(2'R)-2'-[2"-(Hydroxyamino)-2"-(oxo)ethyl]-6'-(phenylmethoxy)hexanoyl]amino-3,3-dimethylbutanoic acid N-methylamide], the results for the inhibitory constant (Ki) in assay [1], in assay [2] and in assay [3] were 1400 nM, 5 nM and 57 nM, respectively.
As for `CNC(=O)[C@@H](NC(=O)[C@H](CCCCO)CC(=O)NO)C(C)(C)C` [Example 9, (2S)-N-2-[(2'R)-2'-[2"-(Hydroxyamino)-2"-(oxo)ethyl]-6'-(hydroxy)hexanoyl]amino-3,3-dimethylbutanoic acid N-methylamide], the values for the Ki in assay [1], in assay [2] and in assay [3] were 27 nM, 17 nM and 5000 nM, respectively.
In the case of `CNC(=O)[C@H](Cc1ccccc1)NC(=O)[C@H](CCCOCc1ccccc1)CC(=O)NO` [Example 10, N-[(2R)-2-[2'-(Hydroxyamino)-2'-(oxo)ethyl]-5-(phenylmethoxy)pentanoyl]-L-phenylalanine N-methylamide], the inhibition constant (Ki) in assay [1] was 2270 nM.
For the compound `CNC(=O)[C@H](Cc1ccccc1)NC(=O)[C@H](CCCCCOCc1ccccc1)CC(=O)NO` [Example 11, N-[(2R)-2-[2'-(Hydroxyamino)-2'-(oxo)ethyl]-7-(phenylmethoxy)heptanoyl]-L-phenylalanine N-methylamide], the figures for the Ki in assay [1] and in assay [2] were 920 nM and 4 nM, respectively.
For the compound `CCCC(=O)NCCCC[C@H](CC(=O)NO)C(=O)N[C@@H](Cc1ccccc1)C(=O)NC` [Example 12], the results for the Ki in assay [1] and in assay [2] were 1600 nM and 120 nM, respectively.
For `CNC(=O)[C@H](Cc1ccccc1)NC(=O)[C@H](CCCCOc1ccccc1)CC(=O)NO` [Example 13, N-[(2R)-2-[2'-(Hydroxyamino)-2'-(oxo)ethyl]-6-(phenoxy)-hexanoyl]-L-phenylalanine N-methylamide], the inhibitory constant (Ki) in assay [1] was 8 nM.
`CNC(=O)[C@@H](NC(=O)[C@H](CCCC(=O)NCCc1ccccc1)CC(=O)NO)C(C)(C)C` [Example 15, (2S)-N-2'-[(2'R)-2'-[2"-(Hydroxyamino)-2"-(oxo)ethyl]-6'-(2-phenethylamino)-6' (oxo)hexanoyl]amino-3,3-dimethylbutanoic acid N-methylamide]: the Ki in assay [1] was 35 nM; in assay [2] it was 16 nM; in assay [3] it was 26 nM.
As to `CNC(=O)[C@@H](NC(=O)[C@H](CCCCOc1ccc(C)cc1)CC(=O)NO)C(C)(C)C` [Example 16, (2S)-N-2'-[(2'R)-2'-[2"-(Hydroxyamino)-2"-(oxo)ethyl]-6'-(4-methylphenoxy)hexanoyl]amino-3,3-dimethylbutanoic acid N-methylamide], in assay [1], the Ki is 14 nM.
For `CNC(=O)[C@@H](NC(=O)[C@H](CCCCOc1ccc(Cl)cc1)CC(=O)NO)C(C)(C)C` [Example 17, (2S)-N-2'-[(2'R)-2'-[2"-(Hydroxyamino)-2"-(oxo)ethyl]-6'-(4-chlorophenoxy)hexanoyl]amino-3,3-dimethylbutanoic acid N-methylamide], the Ki in assay [1] was 21 nM.
Consider `CNC(=O)[C@@H](NC(=O)[C@H](CCCCOc1cccc(C)c1)CC(=O)O)C(C)(C)C` [Example 19, (2S)-N-2'-[(2'R)-2'-(carboxymethyl)-6'-(3-methylphenoxy)hexanoyl]amino-3,3-dimethylbutanoic acid N-methylamide], for which the Ki in assay [1] is 1800 nM; in assay [3], 220 nM.

The record behind these values is patent US5618844A, “Hydroxamic acid and carboxylic acid derivatives, process for their preparation and use thereof” (Sanofi S.A., priority 1995, dated 1997).
